# Data from PubChem BioAssay AID2060603 (Molecular Pharmacology Branch, DTP, NCI, 2025).
# Tested on: 422866-222-R5-J1-PDC spheroid viability
# Assay: Anticancer human tumor 422866-222-R5-J1-PDC patient-derived pancreatic adenocarcinoma cell line growth inhibition [CLK]
# Details: spheroids with HUVEC and MSC; for IC50: curve of first compound; for viability, T/C: stronger effect = lower value
# Outline: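 Multi-cell-type spheroids combined patient-derived tumor cells with HUVEC endothelial cells and human mesenchymal stem cells. Paired agents were dosed in half-log steps down from about clinical Cmax, or from 10 microM where Cmax was unknown.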
# [1] = second compound 0.0316 µM, first compound 0.0316 µM
# [2] = second compound 0.0316 µM, first compound 0.1 µM
# [3] = second compound 0.0316 µM, first compound 0.316 µM
# [4] = second compound 0.0316 µM, first compound 1 µM
# [5] = second compound 0.0316 µM, first compound 3.16 µM
# [6] = second compound 0.0316 µM, first compound 10 µM
# [7] = second compound 0.1 µM, first compound 0.0316 µM
# [8] = second compound 0.1 µM, first compound 0.1 µM
# [9] = second compound 0.1 µM, first compound 0.316 µM
# [10] = second compound 0.1 µM, first compound 1 µM
# [11] = second compound 0.1 µM, first compound 3.16 µM
# [12] = second compound 0.1 µM, first compound 10 µM
# [13] = second compound 0.316 µM, first compound 0.0316 µM
# [14] = second compound 0.316 µM, first compound 0.1 µM
# [15] = second compound 0.316 µM, first compound 0.316 µM
# [16] = second compound 0.316 µM, first compound 1 µM
# [17] = second compound 0.316 µM, first compound 3.16 µM
# [18] = second compound 0.316 µM, first compound 10 µM
# [19] = second compound 1 µM, first compound 0.0316 µM
# [20] = second compound 1 µM, first compound 0.1 µM
# [21] = second compound 1 µM, first compound 0.316 µM
# [22] = second compound 1 µM, first compound 1 µM
# [23] = second compound 1 µM, first compound 3.16 µM
# [24] = second compound 1 µM, first compound 10 µM
# [25] = second compound 3.16 µM, first compound 0.0316 µM
# [26] = second compound 3.16 µM, first compound 0.1 µM
# [27] = second compound 3.16 µM, first compound 0.316 µM
# [28] = second compound 3.16 µM, first compound 1 µM
# [29] = second compound 3.16 µM, first compound 3.16 µM
# [30] = second compound 3.16 µM, first compound 10 µM
# [31] = second compound 10 µM, first compound 0.0316 µM
# [32] = second compound 10 µM, first compound 0.1 µM
# [33] = second compound 10 µM, first compound 0.316 µM
# [34] = second compound 10 µM, first compound 1 µM
# [35] = second compound 10 µM, first compound 3.16 µM
# [36] = second compound 10 µM, first compound 10 µM
# 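Further: spheroids exposed to agents for seven days before readout.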
smiles,measurement,setting,value
CC(=O)O[C@H]1C(=O)[C@@]2(C)[C@H]([C@H](OC(=O)c3ccccc3)[C@]3(O)C[C@H](OC(=O)[C@H](O)[C@@H](NC(=O)c4ccccc4)c4ccccc4)C(C)=C1C3(C)C)[C@]1(OC(C)=O)CO[C@@H]1C[C@@H]2O + CN1CCN(c2cc(C(=O)Nc3cc4cc(-c5cnn(C)c5)ccc4cn3)ccn2)CC1,IC50,second compound 0.0316 µM,> 10 µM
same,IC50,second compound 0.1 µM,> 10 µM
same,IC50,second compound 0.316 µM,> 10 µM
same,IC50,second compound 1 µM,< 0.0316 µM
same,IC50,second compound 3.16 µM,< 0.0316 µM
same,IC50,second compound 10 µM,< 0.0316 µM
same,"viability, T/C",[1],72.2%
same,"viability, T/C",[2],61.6%
same,"viability, T/C",[3],61.4%
same,"viability, T/C",[4],69.7%
same,"viability, T/C",[5],78.1%
same,"viability, T/C",[6],85.3%
same,"viability, T/C",[7],70.5%
same,"viability, T/C",[8],61.9%
same,"viability, T/C",[9],73.1%
same,"viability, T/C",[10],81.5%
same,"viability, T/C",[11],83.8%
same,"viability, T/C",[12],95.4%
same,"viability, T/C",[13],68.7%
same,"viability, T/C",[14],73%
same,"viability, T/C",[15],72.3%
same,"viability, T/C",[16],69.7%
same,"viability, T/C",[17],72.7%
same,"viability, T/C",[18],85.4%
same,"viability, T/C",[19],21.8%
same,"viability, T/C",[20],20.5%
same,"viability, T/C",[21],18.8%
same,"viability, T/C",[22],19.6%
same,"viability, T/C",[23],18.7%
same,"viability, T/C",[24],16.4%
same,"viability, T/C",[25],6.64%
same,"viability, T/C",[26],7.47%
same,"viability, T/C",[27],8.49%
same,"viability, T/C",[28],4.12%
same,"viability, T/C",[29],9.46%
same,"viability, T/C",[30],8%
same,"viability, T/C",[31],1.52%
same,"viability, T/C",[32],1.43%
same,"viability, T/C",[33],1.2%
same,"viability, T/C",[34],1.05%
same,"viability, T/C",[35],0.96%
same,"viability, T/C",[36],1.27%
COc1ccc([C@@H](O)c2cc(-c3ncnc4cc(N5CCOCC5)ccc34)c(F)cc2Cl)nn1 + CN1CCN(c2cc(C(=O)Nc3cc4cc(-c5cnn(C)c5)ccc4cn3)ccn2)CC1,IC50,second compound 0.0316 µM,5.48 µM
same,IC50,second compound 0.1 µM,5.04 µM
same,IC50,second compound 0.316 µM,7.11 µM
same,IC50,second compound 1 µM,< 0.0316 µM
same,IC50,second compound 3.16 µM,< 0.0316 µM
same,IC50,second compound 10 µM,< 0.0316 µM
same,"viability, T/C",[1],116%
same,"viability, T/C",[2],96.8%
same,"viability, T/C",[3],88.8%
same,"viability, T/C",[4],77.4%
same,"viability, T/C",[5],59%
same,"viability, T/C",[6],39.5%
same,"viability, T/C",[7],114%
same,"viability, T/C",[8],98.8%
same,"viability, T/C",[9],94.3%
same,"viability, T/C",[10],73.6%
same,"viability, T/C",[11],56%
same,"viability, T/C",[12],40.4%
same,"viability, T/C",[13],98.7%
same,"viability, T/C",[14],87.8%
same,"viability, T/C",[15],81.4%
same,"viability, T/C",[16],77.7%
same,"viability, T/C",[17],52.9%
same,"viability, T/C",[18],48%
same,"viability, T/C",[19],18.2%
same,"viability, T/C",[20],18.5%
same,"viability, T/C",[21],22.9%
same,"viability, T/C",[22],16.7%
same,"viability, T/C",[23],20.9%
same,"viability, T/C",[24],19.1%
same,"viability, T/C",[25],7.87%
same,"viability, T/C",[26],8.87%
same,"viability, T/C",[27],9.25%
same,"viability, T/C",[28],8.71%
same,"viability, T/C",[29],11.4%
same,"viability, T/C",[30],14.6%
same,"viability, T/C",[31],1.27%
same,"viability, T/C",[32],1.38%
same,"viability, T/C",[33],1.7%
same,"viability, T/C",[34],2.13%
same,"viability, T/C",[35],3.04%
same,"viability, T/C",[36],2.69%
